Key:
[1] = refractive index (Na D-line) (dimensionless); φn = volume fraction of the nth substance listed; conditions: 101 kPa, Liquid, Standard Abbe refractometry
[2] = refractive index (Na D-line) (dimensionless); conditions: 101.33 kPa, Liquid, Standard Abbe refractometry

CCO [ethanol] + CCCC[n+]1cccc(C)c1.F[B-](F)(F)F
[1], φ2 = 0
Conditions	refractive index
293.15 K	1.36144
303.15 K	1.35702
313.15 K	1.3527
323.15 K	1.34837

CCCC[n+]1cccc(C)c1.F[B-](F)(F)F [1-butyl-3-methylpyridinium tetrafluoroborate] + CCO
[1]
Conditions	refractive index
293.15 K, φ1 = 0.0895	1.3713
293.15 K, φ1 = 0.1467	1.3773
293.15 K, φ1 = 0.2062	1.38325
293.15 K, φ1 = 0.2725	1.38979
293.15 K, φ1 = 0.4637	1.4075
293.15 K, φ1 = 0.5588	1.41595
293.15 K, φ1 = 0.6583	1.4245
293.15 K, φ1 = 0.6935	1.42757
293.15 K, φ1 = 0.8285	1.43878
293.15 K, φ1 = 0.883	1.44311
293.15 K, φ1 = 0.928	1.4467
293.15 K, φ1 = 0.9641	1.44963
293.15 K, φ1 = 1	1.45248
303.15 K, φ1 = 0.0891	1.3672
303.15 K, φ1 = 0.1461	1.37333
303.15 K, φ1 = 0.2054	1.3794
303.15 K, φ1 = 0.2716	1.38602
303.15 K, φ1 = 0.4626	1.404
303.15 K, φ1 = 0.5577	1.41257
303.15 K, φ1 = 0.6572	1.42134
303.15 K, φ1 = 0.6925	1.42444
303.15 K, φ1 = 0.8278	1.43584
303.15 K, φ1 = 0.8825	1.44031
303.15 K, φ1 = 0.9277	1.4439
303.15 K, φ1 = 0.964	1.4469
303.15 K, φ1 = 1	1.44976
313.15 K, φ1 = 0.0887	1.36314
313.15 K, φ1 = 0.1477	1.36964
313.15 K, φ1 = 0.2047	1.37558
313.15 K, φ1 = 0.2706	1.3823
313.15 K, φ1 = 0.4614	1.40055
313.15 K, φ1 = 0.5565	1.40924
313.15 K, φ1 = 0.6561	1.4182
313.15 K, φ1 = 0.6914	1.42134
313.15 K, φ1 = 0.8271	1.43292
313.15 K, φ1 = 0.882	1.43752
313.15 K, φ1 = 0.9273	1.44114
313.15 K, φ1 = 0.9638	1.44418
313.15 K, φ1 = 1	1.44706
323.15 K, φ1 = 0.0883	1.35913
323.15 K, φ1 = 0.147	1.36572
323.15 K, φ1 = 0.2037	1.37173
323.15 K, φ1 = 0.2695	1.37856
323.15 K, φ1 = 0.4599	1.39714
323.15 K, φ1 = 0.555	1.40599
323.15 K, φ1 = 0.6548	1.41504
323.15 K, φ1 = 0.6902	1.41823
323.15 K, φ1 = 0.8263	1.42988
323.15 K, φ1 = 0.8814	1.43448
323.15 K, φ1 = 0.9269	1.43827
323.15 K, φ1 = 0.9636	1.44135
323.15 K, φ1 = 1	1.44425

CO [methanol] + CCCC[n+]1cccc(C)c1.F[B-](F)(F)F
[1], φ2 = 0
Conditions	refractive index
293.15 K	1.32843
303.15 K	1.32433
313.15 K	1.32015
323.15 K	1.3167

CCO [ethanol] + CCCC[n+]1ccc(C)cc1.F[B-](F)(F)F
[1], φ2 = 0
Conditions	refractive index
293.15 K	1.36144
303.15 K	1.35702
313.15 K	1.3527
323.15 K	1.34837

CCCC[n+]1ccccc1.F[B-](F)(F)F [1-butylpyridinium tetrafluoroborate] + CO
[1]
Conditions	refractive index
293.15 K, φ1 = 0.0747	1.33926
293.15 K, φ1 = 0.1041	1.34327
293.15 K, φ1 = 0.2013	1.35648
293.15 K, φ1 = 0.3315	1.37286
293.15 K, φ1 = 0.4125	1.38271
293.15 K, φ1 = 0.5222	1.39563
293.15 K, φ1 = 0.6527	1.41047
293.15 K, φ1 = 0.7475	1.42106
293.15 K, φ1 = 0.8152	1.42843
293.15 K, φ1 = 0.8666	1.43377
293.15 K, φ1 = 0.9113	1.43844
293.15 K, φ1 = 0.9687	1.44425
293.15 K, φ1 = 1	1.44719
303.15 K, φ1 = 0.0742	1.3354
303.15 K, φ1 = 0.1035	1.33949
303.15 K, φ1 = 0.2002	1.35293
303.15 K, φ1 = 0.3301	1.36955
303.15 K, φ1 = 0.411	1.37949
303.15 K, φ1 = 0.5206	1.39258
303.15 K, φ1 = 0.6513	1.40757
303.15 K, φ1 = 0.7463	1.41824
303.15 K, φ1 = 0.8142	1.42561
303.15 K, φ1 = 0.8658	1.43105
303.15 K, φ1 = 0.9108	1.43576
303.15 K, φ1 = 0.9685	1.4416
303.15 K, φ1 = 1	1.44454
313.15 K, φ1 = 0.0737	1.33144
313.15 K, φ1 = 0.1028	1.33587
313.15 K, φ1 = 0.1991	1.34941
313.15 K, φ1 = 0.3286	1.36646
313.15 K, φ1 = 0.4096	1.3765
313.15 K, φ1 = 0.5189	1.38958
313.15 K, φ1 = 0.6498	1.40471
313.15 K, φ1 = 0.745	1.41542
313.15 K, φ1 = 0.8132	1.42273
313.15 K, φ1 = 0.865	1.42832
313.15 K, φ1 = 0.9103	1.433
313.15 K, φ1 = 0.9683	1.43897
313.15 K, φ1 = 1	1.4419
323.15 K, φ1 = 0.0732	1.32837
323.15 K, φ1 = 0.1022	1.33278
323.15 K, φ1 = 0.1981	1.3469
323.15 K, φ1 = 0.3271	1.3641
323.15 K, φ1 = 0.408	1.37436
323.15 K, φ1 = 0.5172	1.38733
323.15 K, φ1 = 0.6482	1.40238
323.15 K, φ1 = 0.7438	1.41283
323.15 K, φ1 = 0.8122	1.42002
323.15 K, φ1 = 0.8642	1.42546
323.15 K, φ1 = 0.9097	1.43029
323.15 K, φ1 = 0.9681	1.43614
323.15 K, φ1 = 1	1.43924

CO [methanol]
[2]
Conditions	refractive index
293.15 K	1.32843
303.15 K	1.32433
313.15 K	1.32015
323.15 K	1.3167

Reference: the NIST ThermoML archive (doi:10.1016/j.tca.2013.08.016)
